Test results reported in patent publication US20250136558A1, “PYRAZINE COMPOUNDS AS IRREVERSIBLE INHIBITORS OF FLT3” (BIOMEA FUSION, INC., priority 2021, published 2025).

Legend:
Format in all cases: cell-based
K-562 = assay: Proliferation inhibition (CellTiter-Glo) in K-562 cells; conditions: Homo sapiens, K562, 96 h, K-562 CML cells, no FLT3 mutations, IC50 (4 days)
Description: (§1) The Proliferation Inhibitory Effect was Investigated in Human AML Cell Lines MOLM-13 (AddexBio: C0003003) [REF: Pubmed: 9305600] and MV-4-11 (ATCC: CRL-9591) [REF PMID: 3496132], and CML cell line […] (ATCC: CRL-3343) [REF PMID: 163658]. Molm-13 is heterozygous for FLT3-ITD mutation, while MV4-11 is homozygous for FLT3-ITD [PMID: 12529668]. […] Cells were maintained in RPMI-1640 medium (ThermoFisher catalog no. 61870036) supplemented with 10% of Heat Inactivated FBS (ThermoFisher catalog no.A31605) and 1% Pen-Strep (Thermofisher catalog no. 10378016) and cultured at 37° C. in a humidified incubator with 5% CO2. Cell lines were […], and the cells were maintained in a range 70%-80% confluency.
(§2) ATP is present in all metabolically active cells and is considered as a marker for cell viability and proliferation. Metabolic cell activity was determined using the CellTiter-Glo kit (Promega catalog no. G7572), an ATP monitoring system based on the production of luminescence by the reaction of ATP with added UltraGlo® recombinant luciferase (Kawano et al., 2016, PLOS One, 8; 11(7):e0158888), according to the supplier's experimental recommendations. The assay was based on a 96 well plate format.
(§3) Test compounds were dissolved at 10 mM in DMSO (Sigma catalog no. D8418; purity 299.9%) and stored at −20° C. Eight concentrations of test compound were assessed in duplicate in an individual test occasion in parallel in the selected cell lines. Gilteratinib and FF-10101 were used as reference compounds and tested in duplicate at eight concentrations. 100% of proliferation is represented by the untreated cells (0.2% DMSO).
(§4) On the day of the experiment (TO), cells were quantified with the cell viability analyser NucleoCounter (Chemometec NC-200) and diluted with fresh medium to obtain the cell density of about 10,000 cells per 200 μL medium. 200 μL of cell suspension were added into wells in the 96 well plate.
(§5) After 2 hours from seeding cells, compounds were added using a D300e compound dispenser (Life Sciences Tecan D300) at desired concentrations with shaking between each compound dispensed. Cell plates containing 200 μL/well suspension were incubated at 37° C. in a humidified incubator with […].
(§6) […] Contents were mixed for 5 min on an orbital shaker to induce cell lysis, and then incubated at room temperature for an additional 10 min in the dark to stabilize the luminescent signal. Luminescence was read by using a GloMax GM300 plate reader (Promega) using the luminescence for 96 well plate standard protocol.
(§7) Results were analysed by GraphPad (Prism) and IC50 values were calculated by non-linear regression using four parameter-logistic equation.

MOLM-13 = assay: Proliferation inhibition (CellTiter-Glo) in MOLM-13 cells; conditions: Homo sapiens, 96 h, MOLM-13 AML cells, heterozygous FLT3-ITD, IC50 (4 days)
Description: as §1, §2, §3, §4, §5, §6, §7

MV-4-11 = assay: Proliferation inhibition (CellTiter-Glo) in MV-4-11 cells; conditions: Homo sapiens, MV4-11, 96 h, MV-4-11 AML cells, homozygous FLT3-ITD, IC50 (4 days)
Description: as §1, §2, §3, §4, §5, §6, §7

Compound | IC50 (K-562) | IC50 (MOLM-13) | IC50 (MV-4-11)
C=CC(=O)NCCNc1cc(Nc2nc(NC3CCOCC3)c(CC)nc2C(N)=O)ccn1 [Compound 20, 3-((2-((2-Acrylamidoethyl)amino)pyridin-4-yl)amino)-6-ethyl-5-((tetrahydro-2H-pyran-4-yl)amino)pyrazine-2-carboxamide] | > 500 nM | 100 to 500 nM | 10 to 100 nM
C#CC(=O)NCCNc1cc(Nc2nc(NC3CCOCC3)c(CC)nc2C(N)=O)ccn1 [Compound 21, 6-Ethyl-3-((2-((2-propiolamidoethyl)amino)pyridin-4-yl)amino)-5-((tetrahydro-2H-pyran-4-yl)amino)pyrazine-2-carboxamide] | 100 to 500 nM | 10 to 100 nM | 10 to 100 nM
CC#CC(=O)NCCNc1cc(Nc2nc(NC3CCOCC3)c(CC)nc2C(N)=O)ccn1 [Compound 22, 3-((2-((2-(But-2-ynamido)ethyl)amino)pyridin-4-yl)amino)-6-ethyl-5-((tetrahydro-2H-pyran-4-yl)amino)pyrazine-2-carboxamide] | > 500 nM | 10 to 100 nM | 10 to 100 nM
C=CS(=O)(=O)NCCNc1cc(Nc2nc(NC3CCOCC3)c(CC)nc2C(N)=O)ccn1 [Compound 23, 6-Ethyl-5-((tetrahydro-2H-pyran-4-yl)amino)-3-((2-((2-(vinylsulfonamido)ethyl)amino)pyridin-4-yl)amino)pyrazine-2-carboxamide] | 100 to 500 nM | 10 to 100 nM | 10 to 100 nM
C=CC(=O)NCCCNc1cc(Nc2nc(NC3CCOCC3)c(CC)nc2C(N)=O)ccn1 [Compound 24, 3-((2-((3-Acrylamidopropyl)amino)pyridin-4-yl)amino)-6-ethyl-5-((tetrahydro-2H-pyran-4-yl)amino)pyrazine-2-carboxamide] | > 500 nM | 10 to 100 nM | 10 to 100 nM
C#CC(=O)NCCCNc1cc(Nc2nc(NC3CCOCC3)c(CC)nc2C(N)=O)ccn1 [Compound 25, 6-Ethyl-3-((2-((3-propiolamidopropyl)amino)pyridin-4-yl)amino)-5-((tetrahydro-2H-pyran-4-yl)amino)pyrazine-2-carboxamide] | 100 to 500 nM | 10 to 100 nM | 1 to 10 nM
CC#CC(=O)NCCCNc1cc(Nc2nc(NC3CCOCC3)c(CC)nc2C(N)=O)ccn1 [Compound 26, 3-((2-((3-(But-2-ynamido)propyl)amino)pyridin-4-yl)amino)-6-ethyl-5-((tetrahydro-2H-pyran-4-yl)amino)pyrazine-2-carboxamide] | > 500 nM | 100 to 500 nM | 10 to 100 nM
C=CS(=O)(=O)NCCCNc1cc(Nc2nc(NC3CCOCC3)c(CC)nc2C(N)=O)ccn1 [Compound 27, 6-Ethyl-5-((tetrahydro-2H-pyran-4-yl)amino)-3-((2-((3-(vinylsulfonamido)propyl)amino)pyridin-4-yl)amino)pyrazine-2-carboxamide] | > 500 nM | 10 to 100 nM | 10 to 100 nM
C=CC(=O)NCCCC(=O)NCCc1cc(Nc2nc(NC3CCOCC3)c(CC)nc2C(N)=O)cc(OC)c1 [Compound 28, 3-((3-(2-(4-Acrylamidobutanamido)ethyl)-5-methoxyphenyl)amino)-6-ethyl-5-((tetrahydro-2H-pyran-4-yl)amino)pyrazine-2-carboxamide] | > 500 nM | 100 to 500 nM | 100 to 500 nM
C=CC(=O)NCCC(=O)NCCc1cc(Nc2nc(NC3CCOCC3)c(CC)nc2C(N)=O)cc(OC)c1 [Compound 29, 3-((3-(2-(3-Acrylamidopropanamido)ethyl)-5-methoxyphenyl)amino)-6-ethyl-5-((tetrahydro-2H-pyran-4-yl)amino)pyrazine-2-carboxamide] | > 500 nM | 10 to 100 nM | 10 to 100 nM
C=CC(=O)N(C)CCCC(=O)NCCc1cc(Nc2nc(NC3CCOCC3)c(CC)nc2C(N)=O)cc(OC)c1 [Compound 30, 6-Ethyl-3-((3-methoxy-5-(2-(4-(N-methylacrylamido)butanamido)ethyl)phenyl)amino)-5-((tetrahydro-2H-pyran-4-yl)amino)pyrazine-2-carboxamide] | > 500 nM | 100 to 500 nM | 1 to 10 nM
C#CC(=O)NCCC(=O)NCCc1cc(Nc2nc(NC3CCOCC3)c(CC)nc2C(N)=O)cc(OC)c1 [Compound 31, 6-Ethyl-3-((3-methoxy-5-(2-(3-propiolamidopropanamido)ethyl)phenyl)amino)-5-((tetrahydro-2H-pyran-4-yl)amino)pyrazine-2-carboxamide] | > 500 nM | 1 to 10 nM | < 1 nM
C#CC(=O)N(C)CCCC(=O)NCCc1cc(Nc2nc(NC3CCOCC3)c(CC)nc2C(N)=O)cc(OC)c1 [Compound 32, 6-ethyl-3-[3-methoxy-5-[2-[4-[methyl(prop-2-ynoyl)amino]butanoylamino]ethyl]anilino]-5-(tetrahydropyran-4-ylamino)pyrazine-2-carboxamide] | > 500 nM | 1 to 10 nM | < 1 nM
CC#CC(=O)N(C)CCCC(=O)NCCc1cc(Nc2nc(NC3CCOCC3)c(CC)nc2C(N)=O)cc(OC)c1 [Compound 33, 3-[3-[2-[4-[but-2-ynoyl(methyl)amino]butanoylamino]ethyl]-5-methoxy-anilino]-6-ethyl-5-(tetrahydropyran-4-ylamino)pyrazine-2-carboxamide] | > 500 nM | 10 to 100 nM | 10 to 100 nM
C=CC(=O)N(C)CCC(=O)NCCc1cc(Nc2nc(NC3CCOCC3)c(CC)nc2C(N)=O)cc(OC)c1 [Compound 34, 6-Ethyl-3-((3-methoxy-5-(2-(3-(N-methylacrylamido)propanamido)ethyl)phenyl)amino)-5-((tetrahydro-2H-pyran-4-yl)amino)pyrazine-2-carboxamide] | > 500 nM | 10 to 100 nM | 1 to 10 nM
CC#CC(=O)N(C)CCC(=O)NCCc1cc(Nc2nc(NC3CCOCC3)c(CC)nc2C(N)=O)cc(OC)c1 [Compound 35, 3-[3-[2-[3-[but-2-ynoyl(methyl)amino]propanoylamino]ethyl]-5-methoxy-anilino]-6-ethyl-5-(tetrahydropyran-4-ylamino)pyrazine-2-carboxamide] | > 500 nM | 10 to 100 nM | 10 to 100 nM
C=CC(=O)N(C)[C@@H](C)C(=O)NCCCOc1cccc(Nc2nc(NC3CCOCC3)c(CC)nc2C(N)=O)c1 [Compound 36, 6-ethyl-3-[3-[3-[[(2S)-2-[methyl(prop-2-enoyl)amino]propanoyl]amino]propoxy]anilino]-5-(tetrahydropyran-4-ylamino)pyrazine-2-carboxamide] | > 500 nM | 1 to 10 nM | < 1 nM
CCc1nc(C(N)=O)c(Nc2cccc(OCCCNC(=O)[C@H](C)N(C)C(=O)/C=C/CN(C)C)c2)nc1NC1CCOCC1 [Compound 37, 3-[3-[3-[[(2S)-2-[[(E)-4-(dimethylamino)but-2-enoyl]-methyl-amino]propanoyl]amino]propoxy]anilino]-6-ethyl-5-(tetrahydropyran-4-ylamino)pyrazine-2-carboxamide] | > 500 nM | < 1 nM | < 1 nM
C=CC(=O)N(C)[C@@H](C)C(=O)NCCOc1cccc(Nc2nc(NC3CCOCC3)c(CC)nc2C(N)=O)c1 [Compound 38, 6-ethyl-3-[3-[2-[[(2S)-2-[methyl(prop-2-enoyl)amino]propanoyl]amino]ethoxy]anilino]-5-(tetrahydropyran-4-ylamino)pyrazine-2-carboxamide] | > 500 nM | 10 to 100 nM | 1 to 10 nM
CCc1nc(C(N)=O)c(Nc2cccc(OCCNC(=O)[C@H](C)N(C)C(=O)/C=C/CN(C)C)c2)nc1NC1CCOCC1 [Compound 39, 3-[3-[2-[[(2S)-2-[[(E)-4-(dimethylamino)but-2-enoyl]-methyl-amino]propanoyl]amino]ethoxy]anilino]-6-ethyl-5-(tetrahydropyran-4-ylamino)pyrazine-2-carboxamide] | > 500 nM | 1 to 10 nM | < 1 nM
